Source: US6956046B2, “4-hydroxypiperidine derivatives having analgesic activity” (priority 2001, dated 2005)
Blank lines part the entries; values can stand above or below the compound they belong to.

Assays:
[1] = test system: formalin-induced nociceptive response in rats; experiment: Inhibitory effect on the formalin-induced nociceptive response in rats; assay type: in vivo, rat; conditions: oral, 30 minutes before subcutaneous formalin; probit method
Method: [Inhibitory Effect on the Formalin-induced Nociceptive Response in Rats]
The experiment was undertaken by the method disclosed by Doak et al., Eur. J. Pharmacol. 281:311, 1995. Specifically, 50 μL of 0.5% formalin solution was subcutaneously injected into the left foot pad of the rat, and then each behavior of the rat consisting of the licking or biting of the pad immediately following the injection was checked with a stopwatch for its duration, and its cumulative duration was recorded at five minute intervals. The nociceptive response observed in 10 minutes after the injection was termed a first-phase response while the response observed between 10 minutes and 45 minutes after the injection was termed a second-phase response. The test compound was orally applied to the rat 30 minutes before the subcutaneous injection of formalin. Then, the inhibitory effect of the test compound on the nociceptive response induced by the formalin injection was calculated according to the following formula and 30% inhibition dose (ED30 value) was determined by the probit method. To mention, for illustration, ED30 value of carbamazepine was 27 mg/kg. Percent inhibition (%)=[(PRcontrol−PRtest)/PRcontrol]×100 wherein PRtest is the response time (sec) of the test group which received formalin and the test compound, while PRcontol is the response time of the control group which. received formalin and vehicle.

[2] = test system: rat model made by loosely constricting the sciatic nerve; experiment: Efficacy in the rat model made by loosely constricting the sciatic nerve (von Frey response threshold); assay type: in vivo; conditions: for Mean threshold (g) Injured foot (left) / Mean threshold (g) Normal foot (right): one hour after dosing
Method: [Efficacy in the Rat Model Made by Loosely Constricting the Sciatic Nerve]
Preparation of the rat pain model based on the constriction of the sciatic nerve was performed by the method introduced by Bennett et al. (“Pain,” 33:87, 1988). Specifically, the rat was anesthetized with i.p. injection of pentobarbital sodium at 40 mg/kg; the overlying skin was cut open; and the left biceps femoris muscle was bluntly separated. The sciatic nerve was isolated from surrounding tissues; it was gently constricted at four sites about 1 mm apart from each other by the use of surgical gut sutures (4-0 or 3-0 chromic gut); the operated part was closed; and the rat was returned to its cage for further feeding. For the rat belonging to the sham-surgery group, the same operation was performed except that the sciatic nerve was left untouched. Two weeks after the surgery, the response threshold to a mechanical stimulus consisting of touch with von Frey filaments was determined. The test proceeded as follows: the test compound was orally applied to the rat having the sciatic nerve constricted; one hour later, von Frey hairs were applied against the foot pad (spots ranging from heel to the mid-point of foot) one after another in an ascending order of their stiffness; if the rat raises its foot when a certain von Frey hair was applied, the stimulus intensity of that hair was taken as the response threshold (maximum stimulus intensity being 28.84 g).

[3] = test system: Wistar Hannover female rats; experiment: Toxicological study, oral, rats; assay type: in vivo, rat
Method: The compounds of Example 8 or Example 12 were orally given to 6 week-old Wistar Hannover female rats at 40 mg/kg/day.
The compound of Example 29 was orally given to 6 week-old Wistar Hannover female rats at 400 mg/Kg/day once daily for 14 days, respectively.

[4] = test system: rhesus male monkeys; experiment: Toxicological study, oral, 14 days, monkeys; assay type: in vivo, rhesus monkey; conditions: for survival: until 24 hours after final administration
Method: The compound Example 12 or Example 29 were orally given to 3 year-old rhesus male monkeys at 20 mg/Kg/day and 40 mg/Kg/day, respectively, once daily for 14 days.

[5] = test system: rhesus male monkey; experiment: Holter ECG test; assay type: in vivo; conditions: oral 80 mg/Kg, 4 year-old rhesus male monkey
Method: In Holter ECG test, the compound of Example 12 or Example 29 were orally given to 4 year-old rhesus male monkey at 80 mg/Kg. There was no effect in electrocardiogram.

[6] = Pharmacokinetics: plasma concentration after a single oral administration; assay type: in vivo; conditions: male rhesus monkey
Excerpt: The compound of Example 12 or Example 29 were studied about time-course profile of plasma concentration after a single oral administration to 3 or 4 year-old male rhesus monkey. […] Therefore, it can be considered to cause unlikely the drug-drug interaction by the compounds. […] Therefore, it can be considered that the compounds are unlikely metabolized by first pass effect.

[7] = test system: human-drug metabolizing enzymes; experiment: Inhibitory effect on human-drug metabolizing enzymes; assay type: in vitro ADME
[8] = Metabolic stability in human liver microsomes and hepatocytes; assay type: in vitro ADME
[9] = Metabolic stability in monkey liver microsomes and hepatocytes; assay type: in vitro ADME
[10] = Metabolic stability in dog liver microsomes and hepatocytes; assay type: in vitro ADME
[11] = Metabolic stability in rat liver microsomes and hepatocytes; assay type: in vitro ADME
[12] = oral 400 mg/Kg/day once daily for 14 days
[13] = oral 40 mg/Kg/day once daily for 14 days
[14] = oral 40 mg/kg/day, 6 week-old female rats
[15] = oral 40 mg/kg/day, 6 week-old female rats, examination period
[16] = oral 20 mg/Kg/day once daily for 14 days

Structure (SMILES): CN(CC1(O)CCN(CCc2ccc(C#N)cc2)CC1)c1ccc(-c2nnn[nH]2)cc1 [Example 17, 4-{2-[4-hydroxy-4-({methyl[4-(1H-tetrazol-5-yl)phenyl]-amino}methyl)piperidin-1-yl]ethyl}benzonitrile]
melting point: 159.7 to 171.8 °C

Structure (SMILES): CN(CC1(O)CCN(CCc2ccccc2)CC1)c1ccc(C(=O)O)cc1.Cl
melting point: 242.5 to 245 °C

Structure (SMILES): CN(CC1(O)CCN(CCc2ccc(C#N)cc2)CC1)c1ccc(C(=O)O)cc1.Cl [Example 29, 4-({1-[2-(4-cyanophenyl)ethyl]-4-hydroxypiperidin-4-ylmethyl}methylamino)benzoic acid monohydrochloride]
ED30 value (30% inhibition dose) [1]: 1.2 mg/kg | Mean threshold (g) Injured foot (left) ([2]; dose 1 mg/kg oral): 5.22 g | Mean threshold (g) Normal foot (right) ([2]; dose 1 mg/kg oral): 14.12 g | Mean threshold (g) Injured foot (left) ([2]; dose 3 mg/kg oral): 7.09 g | Mean threshold (g) Normal foot (right) ([2]; dose 3 mg/kg oral): 14.49 g | Mean threshold (g) Injured foot (left) ([2]; dose 10 mg/kg oral): 8.61 g | Mean threshold (g) Normal foot (right) ([2]; dose 10 mg/kg oral): 15.49 g | general appearances, body weight gains and food consumptions [3, 12]: no abnormalities | hematology, biochemistry, organ weight, and histopathology [3, 12]: No abnormal findings | survival ([3]; oral 400 mg/Kg/day once daily for 14 days, until 24 hours after final administration): All the rats survived | general appearances, body weight gains and food consumptions [4, 13]: no abnormalities | hematology, biochemistry, organ weight, and histopathology [4, 13]: No abnormal findings | survival [4, 13]: All the monkeys survived | effect in electrocardiogram [5]: no effect | bioavailability [6]: very good bioavailability | maximum plasma concentration (Cmax) and area under the plasma concentration-time curve (AUC) versus dose [6]: increased almostly in proportion to the doses | inhibitory effect on human-drug metabolizing enzymes [7]: no serious inhibitory effect | metabolic stability [8]: metabolically stable | metabolic stability [9]: metabolically stable | metabolic stability [10]: metabolically stable | metabolic stability [11]: metabolically stable

Structure (SMILES): Cl.N#Cc1ccc(CCN2CCC(O)(COc3ccc(C(=O)O)cc3)CC2)cc1 [Example 12, 4-{1-[2-(4-cyanophenyl)ethyl]-4-hydroxypiperidin-4-ylmethoxy}benzoic acid hydrochloride]
ED30 value (30% inhibition dose) [1]: 2.0 mg/kg | Mean threshold (g) Injured foot (left) ([2]; dose 1 mg/kg oral): 7.96 g | Mean threshold (g) Normal foot (right) ([2]; dose 1 mg/kg oral): 14.29 g | Mean threshold (g) Injured foot (left) ([2]; dose 3 mg/kg oral): 8.92 g | Mean threshold (g) Normal foot (right) ([2]; dose 3 mg/kg oral): 14.71 g | Mean threshold (g) Injured foot (left) ([2]; dose 10 mg/kg oral): 10.96 g | Mean threshold (g) Normal foot (right) ([2]; dose 10 mg/kg oral): 14.29 g | general appearance [3, 14]: no abnormalities | survival [3, 15]: all the rats survived | general appearances, body weight gains and food consumptions [4, 16]: no abnormalities | hematology, biochemistry, organ weight, and histopathology [4, 16]: No abnormal findings | survival [4, 16]: All the monkeys survived | effect in electrocardiogram [5]: no effect | bioavailability [6]: very good bioavailability | maximum plasma concentration (Cmax) and area under the plasma concentration-time curve (AUC) versus dose [6]: increased almostly in proportion to the doses | inhibitory effect on human-drug metabolizing enzymes [7]: no serious inhibitory effect | metabolic stability [8]: metabolically stable | metabolic stability [9]: metabolically stable | metabolic stability [10]: metabolically stable | metabolic stability [11]: metabolically stable

Structure (SMILES): CN(CC1(O)CCN(CCc2ccc(S(C)(=O)=O)cc2)CC1)c1ccc(C(=O)O)cc1.Cl
melting point: 246.5 to 249.6 °C

Structure (SMILES): NC(=O)N1c2ccccc2C=Cc2ccccc21 [Carbamazepine, carbamazepine, reference compound]
ED30 value (30% inhibition dose) [1]: 27 mg/kg | Mean threshold (g) Injured foot (left) ([2]; dose 30 mg/kg oral): 9.01 g | Mean threshold (g) Normal foot (right) ([2]; dose 30 mg/kg oral): 20.53 g | threshold of the injured paw to a mechanical stimulus (in words) ([2]; injured side): significantly raised | response threshold of the normal paw (in words) ([2]; normal side): significantly raised

Structure (SMILES): CN(CC1(O)CCN(CCc2ccccc2C#N)CC1)c1ccc(C(=O)O)cc1.Cl
melting point: 197.2 to 222.4 °C

Structure (SMILES): CN(CC1(O)CCN(CCc2ccc(C#N)cc2)CC1)c1ccc([N+](=O)[O-])cc1 [Example 16, 4-[2-(4-hydroxy-4-{[methyl(4-nitrophenyl)amino]methyl}piperidin-1-yl)ethyl]benzonitrile]
melting point: 98.3 to 108.1 °C

Structure (SMILES): Cl.N#Cc1ccc(CCN2CCC(O)(COc3ccc(CO)cc3)CC2)cc1 [Example 8, 1-[2-(4-cyanophenyl)ethyl]-4-(4-hydroxymethylphenoxymethyl)piperidin-4-ol hydrochloride]
general appearance [3, 14]: no abnormalities | survival [3, 15]: all the rats survived

Further lines, with some results ahead:

melting point: 195.3 to 200.6 °C
Structure (SMILES): CN(CC1(O)CCN(CCc2ccc(C#N)cc2)CC1)c1ccccc1C(=O)O.Cl

melting point: 166.8 to 176.4 °C
Structure (SMILES): CN(CC1(O)CCN(CCc2cccc(C#N)c2)CC1)c1ccc(C(=O)O)cc1.Cl

melting point: 247.7 to 253.2 °C
Structure (SMILES): Cl.N#Cc1ccc(CCN2CCC(O)(CNc3ccc(C(=O)O)cc3)CC2)cc1

melting point: 192.1 to 193.2 °C
Structure (SMILES): N#Cc1ccc(CCN2CCC(O)(COc3ccc(C(N)=O)cc3)CC2)cc1 [Example 5, 4-(4-carbamoylphenoxymethyl)-1-[2-(4-cyanophenyl)ethyl]-piperidin-4-ol]

melting point: 251 to 254.9 °C
Structure (SMILES): Cl.N#Cc1ccc(CCN2CCC(O)(COc3ccc(C(N)=O)cc3)CC2)cc1

melting point: 253 to 255.6 °C
Structure (SMILES): Cl.N#Cc1ccc(CCN2CCC(O)(COc3ccc(O)cc3)CC2)cc1

melting point: 106.5 to 116.2 °C
Structure (SMILES): CN(CC1(O)CCN(CCc2ccc(C#N)cc2)CC1)c1ccccc1C(=O)O [Example 19, 2-({1-[2-(4-cyanophenyl)ethyl]-4-hydroxypiperidin-4-ylmethyl}methylamino)benzoic acid]

melting point: 125.5 to 129.7 °C
Structure (SMILES): CN(CC1(O)CCN(CCc2ccc(C#N)cc2)CC1)c1cccc(C(=O)O)c1.Cl

melting point: 134.7 to 156.7 °C
Structure (SMILES): N#Cc1ccc(CCN2CCC(O)(COc3ccc([N+](=O)[O-])cc3)CC2)cc1 [Example 6, 1-[2-(4-cyanophenyl)ethyl)-4-(4-nitrophenoxymethyl)piperidin-4-ol]

melting point: 219.6 to 221.3 °C
Structure (SMILES): Cl.N#Cc1ccc(CCN2CCC(O)(COc3ccc([N+](=O)[O-])cc3)CC2)cc1 [Example 11, 1-[2-(4-cyanophenyl)ethyl]-4-(4-nitrophenoxymethyl)piperidin-4-ol hydrochloride]
ED30 value (30% inhibition dose) [1]: 0.047 mg/kg

melting point: 181.9 to 189.1 °C
Structure (SMILES): CN(CC1(O)CCN(CCc2ccc(C#N)cc2)CC1)c1cccc(C(=O)O)c1 [Example 15, 3-({1-[2-(4-cyanophenyl)ethyl]-4-hydroxypiperidin-4-ylmethyl}methylamino)benzoic acid]

melting point: 169.8 to 173.6 °C
Structure (SMILES): CN(CC1(O)CCN(CCc2ccc(C#N)cc2)CC1)c1ccc([N+](=O)[O-])cc1.Cl

melting point: 183.7 to 189.7 °C
Structure (SMILES): COC(=O)c1ccc(OCC2(O)CCN(CCc3ccc(C#N)cc3)CC2)cc1.Cl
